Source: patent US9745629B2, “In vitro method for screening for candidate compounds for preventing and/or attenuating ageing of the skin, and/or for hydrating the skin” (CHANEL PARFUMS BEAUTE, priority 2011, dated 2017)
Several values for one entry are separate records, joined by “and”; a condition that tells them apart may be missing. Equal entries are not always repeated.

Tested on: LARGE protein
Assay: Stimulation of the expression of LARGE protein in normal human keratinocytes (immunocytochemical staining)
Assay type: cell-based
Details: 48 hours, visual staining scale from 1 to 5, untreated keratinocytes 2.03, one donor
Description: The effect of the Resveratrol used in Example 4 on the expression of the LARGE protein was evaluated in cultured keratinocytes. Keratinocytes derived from neonatal foreskin (Invitrogen, CA, USA) were cultivated in 6-well plates containing cover glasses coated with poly-L-ornithine (Sigma, MO) in keratinocyte culture medium with supplement (EpiLife, Invitrogen). After culturing for 24 hours at 37° C., the 40-50% confluent cells were washed with PBS buffer (Invitrogen, CA) and incubated with basal keratinocytes culture medium (EpiLife, Invitrogen) containing the extract to be tested, for 48 hours. The cytotoxicity of the extract was evaluated in human cultured keratinocytes before testing the activity. To quantify the expression of the LARGE protein in a treated sample relative to an untreated sample, immunocytochemical staining (ICC) of cover glasses with cultured keratinocytes was used. Staining was performed in triplicates, with primary goat anti-human LARGE antibodies (Santa Cruz, Calif.) and secondary donkey anti-goat antibodies (Rockland Immunochemicals, PA). The staining was visualized with AEC system (Lab Vision Corporation, CA). The extent of staining was assessed on thirty random images for each experimental condition, and a visual assessment of the staining was made using a scale from 1 to 5, with 1 being the least intense and 5 being the most intense. The significance of the difference between mean values was assessed using unpaired t test.

Question: How did the “Stimulation of LARGE protein” value (0.0005% (w/w)) turn out when `Oc1ccc(C=Cc2cc(O)cc(O)c2)cc1` [Resveratrol] was run?
Answer: Its value is 2.7 (±0.88) and 2.70.

Question: What about the “Stimulation of LARGE protein” value (0.001% (w/w)) of the same compound?
Answer: Its value is 2.67 (±0.55) and 2.67.

Question: And the “Stimulation of LARGE protein” value (0.002% (w/w))?
Answer: The value was 3.8 (±0.93) and 3.80.
